Test results reported in paper PMC4891657, “Orexin 2 Receptor Antagonism is Sufficient to Promote NREM and REM Sleep from Mouse to Man” (Scientific Reports, 2016).
Substitutions are numbered along the chain they refer to.

Tests used:
[1] = target: T1, OX2R (Canis lupus familiaris, UniProt Q9TUP7); assay: Radio-ligand displacement binding, CHO-K1 membranes, dog OX2R; conditions: for fold OX2R selectivity (Ki): OX1R Ki / OX2R Ki; for Ki: read-out: OX2R affinity (Ki)
T1 construct: expressed in transfected cells; host or cells: CHO-K1
T1 sequence (Q9TUP7 1-444): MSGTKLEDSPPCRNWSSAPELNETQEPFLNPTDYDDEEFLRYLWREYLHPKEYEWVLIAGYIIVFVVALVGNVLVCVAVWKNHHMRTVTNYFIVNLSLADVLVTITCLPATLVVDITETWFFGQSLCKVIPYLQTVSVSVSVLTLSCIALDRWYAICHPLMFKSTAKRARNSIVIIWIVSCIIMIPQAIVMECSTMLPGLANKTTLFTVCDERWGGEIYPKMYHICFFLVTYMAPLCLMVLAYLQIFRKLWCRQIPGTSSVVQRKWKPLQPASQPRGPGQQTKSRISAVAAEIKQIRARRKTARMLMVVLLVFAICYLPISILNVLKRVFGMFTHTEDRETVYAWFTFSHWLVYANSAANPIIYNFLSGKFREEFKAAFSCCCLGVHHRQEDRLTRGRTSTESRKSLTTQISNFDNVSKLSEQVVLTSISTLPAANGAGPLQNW
Method: (§1) MK-1064 was evaluated for its ability to inhibit orexin-peptide-A-induced calcium mobilization in CHO cell lines separately expressing OX1R and OX2R from mice, rats, rabbits, dogs, rhesus monkeys and humans.
(§2) Binding and functional blockade of OX1R and OX2R with MK-1064 relative to other 2-SORAs and the DORA, MK-6096, were assessed using membranes from Chinese hamster ovary (CHO)-K1 cells (American Type Tissue Collection, Manassas, VA) transfected to express human, mouse, rat, rabbit, dog, or rhesus monkey OX1R or OX2R receptors, as described previously. The kinetics of binding to human OX2R was assessed by radioligand displacement on CHO-K1 cells expressing the receptor. […] The ON rate analysis was performed by presoaking GF/B filters in 0.3% polyethyleneimine (Sigma) using a Skatron 12-well cell harvester and cold buffer at the indicated time points after addition. For OFF rate determination, binding reactions were allowed to proceed to equilibrium and terminated with 1000x [Kd] of unlabeled antagonist and filtered as above at pre-determined time points. Ultima Gold^TM (PerkinElmer 6013327) scintillation cocktail was added to each filter disc and counted on a PerkinElmer TriCarb 2910 scintillation counter. Data were analyzed using GraphPad® Prism v 6.04 (San Diego, CA, USA). The KON rate was determined according to the equation, KON = (KOBS − KOFF)/[ligand].

[2] = target: T2, OX1R (Oryctolagus cuniculus, UniProt G1SPJ3); assay: Inhibition of orexin-peptide-A-induced calcium mobilization in CHO cells, rabbit OX1R; format: cell-based
T2 sequence (G1SPJ3 1-416): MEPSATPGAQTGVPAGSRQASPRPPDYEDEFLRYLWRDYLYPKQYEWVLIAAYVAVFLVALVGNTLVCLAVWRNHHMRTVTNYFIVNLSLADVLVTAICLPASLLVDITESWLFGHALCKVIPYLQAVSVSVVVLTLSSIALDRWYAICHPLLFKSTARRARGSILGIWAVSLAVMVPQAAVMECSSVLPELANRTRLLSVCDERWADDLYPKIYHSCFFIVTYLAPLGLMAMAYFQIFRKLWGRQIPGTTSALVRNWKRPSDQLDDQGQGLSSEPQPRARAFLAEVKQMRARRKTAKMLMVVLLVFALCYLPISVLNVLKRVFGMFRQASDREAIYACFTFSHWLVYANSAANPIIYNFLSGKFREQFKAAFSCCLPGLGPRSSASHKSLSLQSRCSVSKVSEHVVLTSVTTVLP
Method: as §1, §2

[3] = target: T3, hOX1R (Homo sapiens, UniProt O43613); assay: Radio-ligand displacement binding, CHO-K1 membranes, human OX1R; conditions: read-out: OX1R affinity (Ki)
T3 construct: expressed in transfected cells; host or cells: CHO-K1
T3 sequence (O43613 1-425): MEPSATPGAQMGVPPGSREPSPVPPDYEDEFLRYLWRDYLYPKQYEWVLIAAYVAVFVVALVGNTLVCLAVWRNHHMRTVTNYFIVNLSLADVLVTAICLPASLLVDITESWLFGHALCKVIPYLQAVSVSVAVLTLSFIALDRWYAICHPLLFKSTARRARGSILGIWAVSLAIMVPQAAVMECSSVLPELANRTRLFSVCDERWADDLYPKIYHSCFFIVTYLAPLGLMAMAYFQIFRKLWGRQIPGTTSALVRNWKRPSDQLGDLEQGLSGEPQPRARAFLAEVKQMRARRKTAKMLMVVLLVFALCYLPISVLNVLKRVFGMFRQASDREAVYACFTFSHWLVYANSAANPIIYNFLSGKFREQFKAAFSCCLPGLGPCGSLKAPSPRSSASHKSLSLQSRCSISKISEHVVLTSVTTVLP
Method: as §1, §2

[4] = target: T4, OX2R (Oryctolagus cuniculus, UniProt G1STQ8); assay: Radio-ligand displacement binding, CHO-K1 membranes, rabbit OX2R; conditions: for fold OX2R selectivity (Ki): OX1R Ki / OX2R Ki; for Ki: read-out: OX2R affinity (Ki)
T4 sequence (G1STQ8 1-444): T1 sequence (Q9TUP7 1-444) with C12R, P19S, V70I, E217D, A272V, P275S, G277A, F414L, D415E
Method: as §1, §2

[5] = target: T5, OX1R (Macaca mulatta, UniProt F7FE63); assay: Inhibition of orexin-peptide-A-induced calcium mobilization in CHO cells, rhesus OX1R; format: cell-based, rhesus monkey
T5 sequence (F7FE63 1-425): T3 sequence (O43613 1-425) with G12R, P15T, V58L, A102V, A174T, I175V, E275Q, L380P, I408V, I411L
Method: as §1, §2

Row | Compound | fold OX2R selectivity (Ki) [1] | Ki [1] | Kb [2] | Ki [3] | fold OX2R selectivity (Ki) [4] | Ki [4] | Kb [5]
1 | COc1ccc(CNC(=O)c2cc(-c3cncc(C)c3)ncc2-c2ccccc2)nc1OC [2-SORA-7] | [2857] fold | 0.63 nM | 16800 nM | 2800 nM | [9986] fold | 0.44 nM | 3650 nM
2 | COc1ccc(CNC(=O)c2cc(-c3cc(Cl)cc(Cl)c3)cnc2-c2cccnc2)cc1OC [2-SORA-18] | [782] fold | 0.11 nM | 496 nM | 100 nM | [2410] fold | 0.1 nM | 141 nM
3 | COc1ccc(CNC(=O)c2cc(-c3cncc(Cl)c3)cnc2-c2ccccn2)nc1OC [MK-1064, 5″-chloro-N-[(5,6-dimethoxypyridin-2-yl)methyl]-2,2′:5′, 3″-terpyridine-3′-carbo xamide] | [1667] fold | 0.78 nM | 7370 nM | 1500 nM | [4780] fold | 0.51 nM | 3370 nM
4 | COc1ccc(CNC(=O)c2cc(-c3cncc(C)c3)ncc2-c2nccs2)nc1OC [MK-3697] | – | 1.1 nM | 32100 nM | – | – | 1.01 nM | 21400 nM
5 | Cc1ccc(-c2ncccn2)c(C(=O)N2C[C@H](COc3ccc(F)cn3)CC[C@H]2C)c1 [MK-6096] | [7.5] fold | 0.36 nM | 13 nM | 2.5 nM | [9.3] fold | 0.28 nM | 21 nM
